pIC50: −log10 of the molar value.
Target: T1, Eg5 motor protein (Homo sapiens, UniProt P52732)
T1 construct: Eg5 motor domain (amino acids 1-368) was cloned into pET22b; His-tag (C); made in house; host or cells: Escherichia coli BL21 (DE3)
T1 sequence (P52732 1-368): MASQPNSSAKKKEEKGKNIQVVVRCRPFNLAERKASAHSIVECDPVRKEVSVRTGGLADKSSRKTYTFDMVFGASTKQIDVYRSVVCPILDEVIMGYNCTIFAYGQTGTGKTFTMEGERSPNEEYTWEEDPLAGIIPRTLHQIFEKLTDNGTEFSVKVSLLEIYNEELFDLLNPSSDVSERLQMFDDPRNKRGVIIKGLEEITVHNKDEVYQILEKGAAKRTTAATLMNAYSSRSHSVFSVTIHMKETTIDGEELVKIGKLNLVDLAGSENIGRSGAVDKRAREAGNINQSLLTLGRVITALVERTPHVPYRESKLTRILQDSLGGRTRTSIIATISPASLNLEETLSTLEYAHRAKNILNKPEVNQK
Assay: microtubule-activated Eg5 motor protein ATPase assay (malachite green, OD630)
Format: biochemical
Settings: for pIC50: microtubule-stimulated KSP ATPase activity
Protocol: Eg5 motor domain (amino acids 1-368) was cloned into pET22b and expressed in Escherichia coli BL21 (DE3) cells.
Tubulin was purified from pig brain, as described in the literature, and stored at −60 °C in BRB80 (80 mM K-Pipes, pH 6.8, 1 mM EGTA, 1 mM MgCl2). Before the assay of Eg5 ATPase, microtubules were assembled in the presence of paclitaxel and were then separated from unassembled tubulin by centrifugation as described in the literature.
Inhibitory activities of the compounds were measured using a microtubule-activated ATPase assay. The compounds, paclitaxel stabilized microtubules, Eg5 motor protein and BRB80 were added to wells of a 96-well plate in a total reaction volume of 38.5 μL. Reactions were started by the addition of 522.11 μM ATP in a total reaction volume of 98.5 μL, incubated at 37 °C for 30 min and terminated by the addition of 15 μL of perchloric acid. The mixture was centrifuged (10,000 rpm) 10 min at room temperature. The supernatant from this centrifugation step was mixed with HCl 1 M, 33 mM malachite green, 775 mM ammonium molybdate tetrahydrate. After 10 min the absorbance was measured at 630 nm using a microplate reader (BIO-RAD iMark^TM). […] Monastrol was used as the positive control. All conditions were performed in three independent duplicate experiments and averaged data points are shown as mean values ± SD, IC50 values were calculated with SPSS17.0 software. The primary data were shown in Supplementary Materials Tables S1–S3.
A sequence of human Eg5 corresponding to amino acids 1 to 368 was amplified with polymerase chain reaction (PCR) by NOVOPRO BIOSCIENCE INC. It was cloned into pET22b introducing a C-terminal His-tag. The protein was expressed in Escherichia coli BL21 (DE3) cells for 12 h at 25 ℃ in LB containing 1mM Isopropyl-beta-D-thiogalactopyranoside (IPTG), 50 ug/ml Ampicillin. The harvested cells were lysed with Ultrasonic Processor in Binder-buffer (50 mM Tris-HCl, 350 mM NaCl, 10 mM Imidazole, pH 8.0). The clarified lysate was loaded onto a Ni-IDA -Sepharose CL-6B Affi Gel column (Sigma), washed with Washing-buffer(20 mM Tris-HCl, 350 mM NaCl, 20 mM Imidazole, pH 8.0) untill effluent OD280 value reaches baseline. Then it was eluted with Elution-buffer (20 mM Tris-HCl, 350 mM NaCl , 250 mM Imidazole, pH8.0). The buffer was exchanged to 150 mM NaCl, 20mM Tris pH 8.0 by dialysis. The protein concentration was adjusted to 2 mg/ml (measured by a Bradford assay using bovine serum albumin (BSA) as standard). Eg5368H was stored at -20 ℃.
Pig brains were cleaned of blood clots with kitchen paper, weighed, and transferred to a Waring blender. Cold (4 ℃) depolymerization buffer (DB) was added at a ratio of 1 liter/kg of brain tissue. The mixture was homogenized twice for approximately 30 s. The homogenates were then centrifuged in a SLA 1500 Sorvall rotor at 29,000g for 60 min at 4 ℃. The supernatants were pooled and supplemented with an equal volume of warm (37 ℃) high-molarity PIPES buffer (HMPB), ATP (1.5 mM final), and GTP (0.5 mM final). An equal volume (1/3 of the final volume) of pre-warmed to 37 ℃ anhydrous glycerol was added to this solution. This mixture was incubated in a 37 ℃ water bath for 1 h. The polymerized tubulin was then centrifuged in a Ti 45 Beckman rotor at 151,000g (44,000 rpm) for 30 min at 37 ℃. The resulting microtubule pellets were resuspended in 100 ml of cold DB and left for 30 min on ice. The depolymerized tubulinwas subsequently centrifuged in a Ti 45 Beckman rotor at 70,000g (30,000 rpm) for 30 min at 4 ℃. The supernatant from this centrifugation step was mixed with an equal volume of the HMPB supplemented with ATP and GTP, followed by the addition of glycerol (1/3 of the final volume) as described above. The mixture was incubated in a 37 ℃ water bath for 30 min, and the polymerized tubulin was pelleted in a Ti 45 Beckman rotor at 151,000g (44,000 rpm) for 30 min at 37 ℃. […]

| SMILES | OD630 Value Mean (compound 24.24 uM) | OD630 Value Mean (compound 30.3 uM) | OD630 Value Mean (compound 60.61 uM) | OD630 Value Mean (compound 80.81 uM) | OD630 Value Mean (compound 90.91 uM) | OD630 Value Mean (compound 121.21 uM) | pIC50 | OD630 Value Mean (compound 25.38 uM) | OD630 Value Mean (compound 50.76 uM) | OD630 Value Mean (compound 67.68 uM) | OD630 Value Mean (compound 76.14 uM) | OD630 Value Mean (compound 101.52 uM) | OD630 Value Mean (compound 20.2 uM) | OD630 Value Mean (compound 40.41 uM) | OD630 Value Mean (compound 53.87 uM) | OD630 Value Mean (compound 107.74 uM) |
| --- | --- | --- | --- | --- | --- | --- | --- | --- | --- | --- | --- | --- | --- | --- | --- | --- |
| CCOc1ccccc1C1NC(=S)NC(C)=C1C(=O)Nc1ccc(Cl)cc1 (stereo not shown) [C9] | 0.221 | 0.182 | 0.163 | 0.157 | 0.156 | 0.14 | 4.52 | – | – | – | – | – | – | – | – | – |
| CCOC(=O)c1c(C2NC(=O)NC(C)=C2C(=O)Nc2ccccc2OC)[nH]c(C(=O)OC)c1C (stereo not shown) [D1] | – | – | – | – | – | – | 4.41 | 0.26 | 0.248 | 0.195 | 0.189 | 0.159 | – | – | – | – |
| CCOC(=O)c1c(C2NC(=O)NC(C)=C2C(=O)Nc2ccccc2C)[nH]c(C(=O)OC)c1C (stereo not shown) [D2] | – | – | 0.219 | 0.137 | – | – | 4.17 | – | – | – | – | – | 0.322 | 0.279 | 0.26 | – |
| CCOC(=O)c1[nH]c(C2NC(=O)NC(C)=C2C(=O)Nc2ccccc2OC)c(C(=O)OC)c1C (stereo not shown) [D3] | 0.218 | 0.182 | 0.146 | – | 0.122 | 0.115 | 4.27 | – | – | – | – | – | – | – | – | – |
| CCOC(=O)c1[nH]c(C2NC(=O)NC(C)=C2C(=O)Nc2ccccc2C)c(C(=O)OC)c1C (stereo not shown) [D4] | 0.198 | 0.174 | 0.158 | – | 0.148 | 0.134 | 4.15 | – | – | – | – | – | – | – | – | – |
| CCOC(=O)c1[nH]c(C2NC(=O)NC(C)=C2C(=O)Nc2ccc(Cl)cc2)c(C(=O)OCC)c1C (stereo not shown) [D7] | – | 0.231 | 0.197 | 0.164 | 0.158 | 0.146 | 4.20 | – | – | – | – | – | – | – | – | – |
| CCOC(=O)c1c(C2NC(=O)NC(C)=C2C(=O)Nc2ccccc2)[nH]c(C(=O)OC)c1C (stereo not shown) [D10] | – | – | 0.225 | 0.197 | 0.191 | 0.133 | 4.19 | – | – | – | – | – | – | – | – | 0.139 |
| CCOC(=O)c1[nH]c(C2NC(=S)NC(C)=C2C(=O)OC)c(C(=O)OCC)c1C (stereo not shown) [D12] | – | 0.243 | 0.191 | 0.141 | 0.129 | 0.123 | 4.24 | – | – | – | – | – | – | – | – | – |
| COC(=O)c1[nH]c(C2NC(=S)NC(C)=C2C(=O)c2ccccc2)c(C(=O)OC)c1C (stereo not shown) [D14] | – | 0.25 | 0.187 | 0.151 | 0.138 | 0.14 | 4.14 | – | – | – | – | – | – | – | – | – |
| CCOC(=O)C1=C(C)NC(=S)NC1c1cccc(O)c1 (stereo not shown) [Monastrol, monastrol, reference compound] | – | – | – | – | – | – | 4.29 | 0.214 | 0.193 | 0.190 | 0.188 | 0.177 | – | – | – | – |
